The target in assay [1] is Botulinum neurotoxin type A (Clostridium botulinum, UniProt P0DPI0). The assay is described as follows: Inhibition of Clostridium botulinum BoNT/A.
Assay [2] has as its target 72 kDa type IV collagenase (Homo sapiens) (UniProt P08253). The assay is described as follows: Ratio of Kinact to Ki for MMP2.
For assay [3], the target named is Matrix metalloproteinase-9 (Homo sapiens) (UniProt P14780). As to the kind of experiment: Ratio of Kinact to Ki for MMP9.
Assay [4] deals with Botulinum neurotoxin type A (Clostridium botulinum) (UniProt P0DPI0). As to the kind of experiment: Ratio of Kinact to Ki for Clostridium botulinum BoNT/A.
Sequence of Botulinum neurotoxin type A (Clostridium botulinum) (P0DPI0 2-448 limits assumed): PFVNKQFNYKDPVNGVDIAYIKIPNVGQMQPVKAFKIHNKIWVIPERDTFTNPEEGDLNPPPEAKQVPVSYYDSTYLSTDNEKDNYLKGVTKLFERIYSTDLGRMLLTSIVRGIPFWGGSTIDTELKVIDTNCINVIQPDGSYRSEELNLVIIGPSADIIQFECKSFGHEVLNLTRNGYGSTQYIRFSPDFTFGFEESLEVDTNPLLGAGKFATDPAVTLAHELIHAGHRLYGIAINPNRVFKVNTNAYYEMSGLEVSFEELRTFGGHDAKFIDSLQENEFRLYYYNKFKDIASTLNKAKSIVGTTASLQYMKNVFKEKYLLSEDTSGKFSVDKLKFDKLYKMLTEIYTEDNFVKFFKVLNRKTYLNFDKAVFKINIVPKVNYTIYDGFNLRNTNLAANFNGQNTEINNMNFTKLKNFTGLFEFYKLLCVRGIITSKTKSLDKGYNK
Assay [5] is described as follows: Selectivity for Clostridium botulinum BoNT/A over MMP9.

Sequence of Matrix metalloproteinase-9 (Homo sapiens) (P14780 whole entry): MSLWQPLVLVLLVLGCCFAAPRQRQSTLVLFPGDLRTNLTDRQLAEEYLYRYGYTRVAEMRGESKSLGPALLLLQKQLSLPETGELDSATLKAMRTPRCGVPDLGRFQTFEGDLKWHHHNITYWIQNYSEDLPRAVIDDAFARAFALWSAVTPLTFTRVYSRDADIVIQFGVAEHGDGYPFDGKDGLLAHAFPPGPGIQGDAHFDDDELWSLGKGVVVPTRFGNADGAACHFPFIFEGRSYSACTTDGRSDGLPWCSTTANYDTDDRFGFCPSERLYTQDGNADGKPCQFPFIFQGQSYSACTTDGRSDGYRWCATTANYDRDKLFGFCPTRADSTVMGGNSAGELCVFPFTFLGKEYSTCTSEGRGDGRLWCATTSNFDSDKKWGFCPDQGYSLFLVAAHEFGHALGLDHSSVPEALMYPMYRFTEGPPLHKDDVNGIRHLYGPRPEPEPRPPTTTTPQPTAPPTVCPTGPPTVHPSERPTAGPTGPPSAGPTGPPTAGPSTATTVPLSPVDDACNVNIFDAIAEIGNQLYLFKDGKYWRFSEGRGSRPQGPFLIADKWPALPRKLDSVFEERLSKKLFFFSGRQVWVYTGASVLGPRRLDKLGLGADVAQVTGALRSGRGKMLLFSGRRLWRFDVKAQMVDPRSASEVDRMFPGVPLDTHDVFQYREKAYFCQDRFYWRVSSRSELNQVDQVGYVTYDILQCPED
Sequence of Botulinum neurotoxin type A (P0DPI0 2-448 limits assumed): as the sequence (P0DPI0 2-448 limits assumed) above
Sequence of 72 kDa type IV collagenase (Homo sapiens) (P08253 110-660 limits assumed): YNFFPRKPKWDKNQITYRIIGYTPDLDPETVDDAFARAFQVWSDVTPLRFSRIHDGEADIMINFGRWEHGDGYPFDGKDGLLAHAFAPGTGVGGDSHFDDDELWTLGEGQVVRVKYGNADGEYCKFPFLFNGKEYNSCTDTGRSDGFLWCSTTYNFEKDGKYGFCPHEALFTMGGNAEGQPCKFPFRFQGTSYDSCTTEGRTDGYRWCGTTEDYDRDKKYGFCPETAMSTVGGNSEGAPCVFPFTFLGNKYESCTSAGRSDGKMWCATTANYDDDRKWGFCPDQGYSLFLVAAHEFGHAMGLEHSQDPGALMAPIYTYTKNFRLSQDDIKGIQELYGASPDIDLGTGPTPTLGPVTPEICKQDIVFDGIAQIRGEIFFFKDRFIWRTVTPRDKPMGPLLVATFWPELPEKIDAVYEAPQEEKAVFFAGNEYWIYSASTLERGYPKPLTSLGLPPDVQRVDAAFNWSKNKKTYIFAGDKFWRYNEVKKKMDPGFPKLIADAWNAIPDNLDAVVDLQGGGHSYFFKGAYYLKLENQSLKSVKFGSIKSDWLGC

In assay [1], `CCCCCc1ccc(C(=O)NO)cc1` gave an IC50 of 41 µM.

With `Cc1cc(Cl)ccc1/C=C/C(=O)NO`, the IC50 in assay [1] worked out at 0.8 µM.

As for `O=C1C=CC(=O)C1=Cc1ccc(Cl)cc1Cl`, the Ratio was less than 33 in assay [2], 61 in assay [3] and 520 in assay [4]. Besides, in assay [5], the Selectivity ratio stood at 9.

With `Cc1cc(Cl)ccc1C=C1C(=O)C=CC1=O`, the results for the Ratio in assay [3] and in assay [4] were 58 and 580, respectively. The Selectivity ratio in assay [5] is 9.

With `CCCCCc1ccc(C=C2C(=O)C=CC2=O)cc1`, the Ratio in assay [4] worked out at 80.

A word on the IC50: it is the concentration needed to halve the response being measured. A low value points to greater potency in that assay.

For the origin of these results see ChEMBL document CHEMBL1153125, “Benzylidene cyclopentenediones: First irreversible inhibitors against botulinum neurotoxin A's zinc endopeptidase” (Bioorg Med Chem Lett, 2010).
